Measured values from PubChem BioAssay (NCI).
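Briefly, cells in 96-well plates were exposed to five compound concentrations for 48 h, and endpoints were estimated by linear interpolation. At the TGI there is no net growth.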

How the values were obtained:
Assay in all cases: DTP human tumour cell line panel, 48 h
[1] = system: SF-539 CNS
[2] = system: LOX IMVI melanoma
[3] = system: CAKI-1 renal
[4] = system: MALME-3M melanoma
[5] = system: HT29 colon
[6] = system: ACHN renal
[7] = system: CCRF-CEM leukemia
[8] = system: NCI-H23 lung
[9] = system: SK-MEL-28 melanoma
[10] = system: SK-MEL-2 melanoma
[11] = system: UO-31 renal
[12] = system: MCF7 breast
[13] = system: NCI-H226 lung
[14] = system: TK-10 renal
[15] = system: HOP-92 NSCLC
[16] = system: K-562 leukemia
[17] = system: SK-OV-3 ovarian
[18] = system: HCC-2998 colon
[19] = system: A498 renal
[20] = system: HL-60(TB) leukemia
[21] = system: M14 melanoma
[22] = system: 786-0 renal
[23] = system: IGROV1 ovarian
[24] = system: SNB-75 CNS
[25] = system: NCI/ADR-RES ovarian
[26] = system: COLO 205 colon
[27] = system: RPMI-8226 leukemia
[28] = system: UACC-62 melanoma
[29] = system: OVCAR-4 ovarian
[30] = system: UACC-257 melanoma
[31] = system: MDA-N
[32] = system: U251 CNS
[33] = system: OVCAR-3 ovarian
[34] = system: A549 NSCLC
[35] = system: HCT-15 colon
[36] = system: MDA-MB-435
[37] = system: KM12 colon
[38] = system: MOLT-4 leukemia
[39] = system: SF-295 CNS
[40] = system: HOP-62 NSCLC
[41] = system: DU-145 prostate
[42] = system: T-47D breast
[43] = system: SW-620 colon
[44] = system: RXF 393 renal
[45] = system: SF-268 CNS
[46] = system: MDA-MB-231 breast
[47] = system: SK-MEL-5 melanoma
[48] = system: EKVX NSCLC
[49] = system: NCI-H460 lung
[50] = system: HS 578T breast
[51] = system: OVCAR-8 ovarian
[52] = system: PC-3 prostate
[53] = system: OVCAR-5 ovarian
[54] = system: SNB-19 CNS
[55] = system: NCI-H522 lung
[56] = system: BT-549 breast
[57] = system: HCT-116 colon
[58] = system: SN12C renal

Measured: TGI

COC(=O)C1C(=O)N(C)C(=O)N2CCCC12 (stereo not drawn)
not listed: [56] | [57] | [58]
> 100 µM: all other assays above

Cc1ccc(S(=O)(=O)Nn2c(O)c(C#N)c(-c3ccc(Cl)cc3)c(C#N)c2=O)cc1
not listed: [8] | [11] | [33] | [41] | [42]
> 100 µM: all other assays above
